Source: US8507559B2, “Cyclohexenyl modulators of chemokine receptor activity” (Bristol-Myers Squibb Company, priority 2008, dated 2013)

Target: T1, CCR2 (Homo sapiens, UniProt P41597)
T1 construct: THP-1 human monocytic leukemic cell line, which expresses endogenous CCR2; endogenous in cells; host or cells: human peripheral blood mononuclear cells, human monocytes or THP-1 cells
T1 sequence (P41597 1-360 isoform P41597-2): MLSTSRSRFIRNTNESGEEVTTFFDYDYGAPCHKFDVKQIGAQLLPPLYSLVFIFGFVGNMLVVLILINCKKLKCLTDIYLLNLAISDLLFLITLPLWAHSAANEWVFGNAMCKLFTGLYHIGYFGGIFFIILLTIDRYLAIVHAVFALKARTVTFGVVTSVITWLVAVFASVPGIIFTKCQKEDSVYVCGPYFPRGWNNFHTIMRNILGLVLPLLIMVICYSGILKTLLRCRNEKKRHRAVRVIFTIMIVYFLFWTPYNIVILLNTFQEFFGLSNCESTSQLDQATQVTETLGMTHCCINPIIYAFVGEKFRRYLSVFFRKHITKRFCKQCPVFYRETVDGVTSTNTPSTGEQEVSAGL
Test: CCR2 binding: antagonism of 125I-MCP-1 binding (human PBMC / THP-1 whole cell)
Details: n = 1 unless otherwise noted
Procedure: Antagonism of MCP-1 Binding to Human PBMC
Millipore filter plates (#MABVN1250) are treated with 100 μl of binding buffer (0.5% bovine serum albumin, 20 mM HEPES buffer and 5 mM magnesium chloride in RPMI 1640 media) for thirty minutes at room temperature. To measure binding, 50 μl of binding buffer, with or without a known concentration compound, is combined with 50 μl of ^125-I labeled human MCP-1 (to give a final concentration of 150 pM radioligand) and 50 μl of binding buffer containing 5×10^5 cells. Cells used for such binding assays can include human peripheral blood mononuclear cells isolated by Ficoll-Hypaque gradient centrifugation, human monocytes (Weiner et al., J. Immunol. Methods. 1980, 36, 89), or the THP-1 cell line which expresses the endogenous receptor. The mixture of compound, cells and radioligand are incubated at room temperature for thirty minutes. Plates are placed onto a vacuum manifold, vacuum applied, and the plates washed three times with binding buffer containing 0.5M NaCl. The plastic skirt is removed from the plate, the plate allowed to air dry, the wells punched out and counted. The percent inhibition of binding is calculated using the total counts obtained in the absence of any competing compound and the background binding determined by addition of 100 nM MCP-1 in place of the test compound.
THP-1 Monocytic Cell Binding: Whole Cell-based Assay
The human CCR2 binding assay was also established with the THP-1 human monocytic leukemic cell line, which expresses endogenous CCR2, using ^125I-human MCP-1 as the tracer ligand. Radioligand competition binding assays were used for assessment of binding affinity of test compounds to the CCR2 receptor. For radioligand competition studies, 100 μl containing 2.5×10^5 THP-1 cells/well (in assay buffer containing 50 mM HEPES, pH7.4, 5 mM MgCl2, 1 mM CaCl2 and 0.5% BSA) were added to 96-well assay plates containing the test compounds in 3-fold serial dilution, with final concentrations ranging from 5 μM to 100 pM. Subsequently, 50 μl ^125I-MCP-1 radioligand at a final concentration of 0.2 nM in assay buffer were added to the reaction. After a 90 minute incubation period at room temperature, the binding reaction was terminated by harvesting on GF/B filter plates (PerkinElmer Cat. No. 6005177) followed by washing with ice-cold wash buffer (50 mM HEPES, pH 7.4, 0.1% BSA, 0.5 M NaCl) to remove unbound ligand. After washing, the plate was dried for 45 minutes at 60° C. followed by addition of 40 μl MicroScint 20 scintillation fluid, sealed and analyzed by the Packard TopCount reader. Non-specific binding was determined in the presence of 10 μM (a molar excess of 5000 fold) of an in-house CCR2 small molecule antagonist (CCR2 IC50=2 nM). Specific binding of ^125I-MCP-1 was calculated as the difference between total and non-specific binding. The competition data was plotted as a percentage inhibition of radioligand specific bound in the absence of test compound (percent of total signal). After correcting for non-specific binding, IC50 values were determined. The IC50 is defined as the concentration of test compound required to reduce ^125I-MCP-1 specific binding by 50% and was calculated using the four parameter logistic equation to fit the normalized data.

| Compound | Ki [nM] |
| --- | --- |
| CC(=O)NC[C@@H]1CC=C(C(=O)O)[C@@](C)(c2ccc(Cl)c(C(F)(F)F)c2)C1 (racemic) [Example 11, (4RS,6RS)-4-(acetamidomethyl)-6-(4-chloro-3-(trifluoromethyl)phenyl)-6-methylcyclohex-1-enecarboxylic acid] | 5500 |
| C[C@@H]1CC=C(C(=O)O)[C@@](C)(c2ccc(Cl)c(C(F)(F)F)c2)C1 [Example 4-01b, (4R,6R)-6-(4-chloro-3-(trifluoromethyl)phenyl)-4,6-dimethylcyclohex-1-enecarboxylic acid] | 4500 |
| CC(C)(C)OC[C@@H]1CC=C(C(=O)O)[C@@](C)(c2ccc(Cl)c(C(F)(F)F)c2)C1 (racemic) [Example 10, (4RS,6RS)-4-(tert-butoxymethyl)-6-(4-chloro-3-(trifluoromethyl)phenyl)-6-methylcyclohex-1-enecarboxylic acid] | 6200 |
| C[C@@H]1CC=C(C(=O)O)[C@@](C)(c2ccc(Cl)c(Cl)c2)C1 [Example 4-02b, (4R,6R)-6-(3,4-dichlorophenyl)-4,6-dimethylcyclohex-1-enecarboxylic acid] | 5800 |
| (4RS,6RS)-6-(4-chloro-3-(trifluoromethyl)-phenyl)-4-(hydroxymethyl)-6-methylcyclohex-1-enecarboxylic acid [Example 9] | 310 |
| C[C@H]1CC=C(C(=O)O)[C@](C)(c2ccc(Cl)c(Cl)c2)C1 [Example 4-02a, (45,65)-6-(3,4-dichlorophenyl)-4,6-dimethylcyclohex-1-enecarboxylic acid] | 36 |
| CC1=C(C(=O)O)[C@@](O)(c2ccc(Cl)c(Cl)c2)C[C@H](C)C1 (racemic) [Example 5, (4RS,6SR)-6-(3,4-dichlorophenyl)-6-hydroxy-2,4,-dimethylcyclohex-1-enecarboxylic acid] | 1000 |
| C[C@H]1CCC(C(=O)O)[C@](C)(c2cccc(C(F)(F)F)c2)C1 (mixture of isomers) [Example 2, (2RS,4SR)-2,4-dimethyl-2-(3-(trifluoromethyl)phenyl)cyclohexanecarboxylic acid] | 5800 |
| C[C@]1(c2ccc(Cl)c(C(F)(F)F)c2)C[C@H](OCc2ccccc2)CC=C1C(=O)O (racemic) [Example 12, (4RS,6RS)-4-(benzyloxy)-6-(4-chloro-3-(trifluoromethyl)phenyl)-6-methylcyclohex-1-enecarboxylic acid] | 2500 |

Further lines, results first:

| Ki [nM] | Compound |
| --- | --- |
| 8200 | Cc1ccc(C2(C)CCCC=C2C(=O)O)cc1C (racemic) [Example 1-08, 6-(3,4-dimethylphenyl)-6-methylcyclohex-1-enecarboxylic acid] |
| 140 | C[C@@H]1CC=C(C(=O)O)[C@@](C)(c2cccc3ccccc23)C1 (racemic) [Example 1-16, (4RS,6RS)-4,6-dimethyl-6-(napthalen-1-yl)cyclohex-1-enecarboxylic acid] |
| 330 | Cc1ccc([C@@]2(C)C[C@H](C)CC=C2C(=O)O)cc1C (racemic) [Example 1-15, (4RS,6RS)-6-(3,4-dimethylphenyl)-4,6-dimethylcyclohex-1-enecarboxylic acid] |
| 1600 | CC1(c2cccc(C(F)(F)F)c2)CCCC=C1C(=O)O (racemic) [Example 1-10, 6-methyl-6-(3-(trifluoromethyl)-phenyl)cyclohex-1-enecarboxylic acid] |
| 5400 | C[C@@H]1CC=C(C(=O)NS(C)(=O)=O)[C@@](C)(c2ccc(Cl)c(Cl)c2)C1 (racemic) [Example 3-01, (4RS,6RS)-6-(3,4-dichlorophenyl)-4,6-dimethyl-N-(methylsulfonyl)cyclohex-1-enecarboxamide] |
| 740 | C[C@@H]1CC=C(C(=O)O)[C@@](C)(c2cc(C(F)(F)F)cc(C(F)(F)F)c2)C1 (racemic) [Example 1-14, (4RS,6RS)-6-(3,5-bis(trifluoromethyl)-phenyl)-4,6-dimethylcyclohex-1-enecarboxylic acid] |
| 3700 | C[C@@H]1CC=C(C(=O)O)[C@@](C)(c2cccc(F)c2)C1 (racemic) [Example 1-23, (4RS,6RS)-6-(3-fluorophenyl)-4,6-dimethylcyclohex-1-enecarboxylic acid] |
| 150 | C[C@@H]1CC=C(C(=O)NS(=O)(=O)c2ccccc2)[C@@](C)(c2ccc(Cl)c(Cl)c2)C1 (racemic) [Example 3-03, (4RS,6RS)-6-(3,4-dichlorophenyl)-4,6-dimethyl-N-(phenylsulfonyl)cyclohex-1-enecarboxamide] |
| 1000 | C[C@@H]1CC=C(C(=O)O)[C@@](C)(c2ccccc2)C1 (racemic) [Example 1-24, (4RS,6RS)-4,6-dimethyl-6-phenylcyclohex-1-enecarboxylic acid] |
| 550 | Cc1ccc(C)c([C@@]2(C)C[C@H](C)CC=C2C(=O)O)c1 (racemic) [Example 1-26, (4RS,6RS)-6-(2,5-dimethylphenyl)-4,6-dimethylcyclohex-1-enecarboxylic acid] |
| 3900 | C[C@]1(c2ccc(Cl)c(Cl)c2)C[C@H](c2ccccc2)CC=C1C(=O)O (racemic) [Example 1-06, (4RS,6RS)-6-(3,4-dichlorophenyl)-6-methyl-4-phenylcyclohex-1-enecarboxylic acid] |
| 3500 | C[C@@H]1CC=C(C(=O)O)[C@@](C)(c2ccc(F)c(F)c2)C1 (racemic) [Example 1-05, (4RS,6RS)-6-(3,4-difluorophenyl)-4,6-dimethylcyclohex-1-enecarboxylic acid] |
| 6600 | C[C@@H]1CC=C(C(=O)NS(=O)(=O)C(F)(F)F)[C@@](C)(c2ccc(Cl)c(Cl)c2)C1 (racemic) [Example 3-02, (4RS,6RS)-6-(3,4-dichlorophenyl)-4,6-dimethyl-N-(trifluoromethylsulfonyl)-cyclohex-1-enecarboxamide] |
| 250 | C[C@@H]1CC=C(C(=O)O)[C@@](C)(c2cccc(-c3ccccc3)c2)C1 (racemic) [Example 1-03, (4RS,6RS)-6-(3-phenylphenyl)-4,6-dimethylcyclohex-1-enecarboxylic acid] |
| 110 | C[C@@H]1CC=C(C(=O)O)[C@@](C)(c2cc(Cl)cc(Cl)c2)C1 (racemic) [Example 1-30, (4RS,6RS)-6-(3,5-dichlorophenyl)-4,6-dimethylcyclohex-1-enecarboxylic acid] |
| 3000 | CC1(c2cccc(Cl)c2)CCCC=C1C(=O)O (racemic) [Example 1-09, 6-(3-chlorophenyl)-6-methylcyclohex-1-enecarboxylic acid] |
| 900 | C[C@@H]1CC=C(C(=O)O)[C@@](C)(c2ccc(Cl)cc2)C1 (racemic) [Example 1-21, (4RS,6RS)-6-(4-chlorophenyl)-4,6-dimethylcyclohex-1-enecarboxylic acid] |
| 10000 | COc1ccccc1C1(C)CCCC=C1C(=O)O (stereo not drawn) [Example 1-07, 6-(2-methoxyphenyl)-6-methyl methylcyclohex-1-enecarboxylic acid] |
| 130 | Cc1cc([C@@]2(C)C[C@H](C)CC=C2C(=O)O)cc(C)c1Cl (racemic) [Example 1-27, (4RS,6RS)-6-(4-chloro-3,5-dimethylphenyl)-4,6-dimethylcyclohex-1-enecarboxylic acid] |
| 280 | C[C@@H]1CC=C(C(=O)O)[C@@](C)(c2cccc(C(F)(F)F)c2)C1 (racemic) [Example 1-12, (4RS,6RS)-4,6-dimethyl-6-(3-(trifluoromethyl)phenyl)cyclohex-1-enecarboxylic acid] |
| 2600 | Cc1ccc([C@@]2(C)C[C@H](C)CC=C2C(=O)O)cc1 (racemic) [Example 1-17, (4RS,6RS)-4,6-dimethyl-6-p-tolylcyclohex-1-enecarboxylic acid] |
